From patent US4400517A, “Phosphoric esters derived from 1,2,4-triazole having an insecticidal, nematocidal and acaricidal action, and their preparation” (priority 1976, dated 1983)
Read-outs that look alike come from different tables or passages of the source.

How the values were obtained:
Tetranychus urticae [1] = experiment: Biological activity on adults of Tetranychus urticae (Acari); type: in vivo; conditions: 24 h
Description: (5) Biological activity on adults of Tetranychus urticae (Acari)
Discs of bean leaves were infested with adult acari and then sprinkled with an aqueous dispersion of the products under examination (see Tables 4 and 5).
The mortality percentage was determined after 24 hours from treatment (untreated leaf discs, mortality=0).

Culex pipiens = experiment: Biological activity on Culex pipiens larvae (Diptera); type: in vivo; conditions: 24 h
Description: (4) Biological activity on Culex pipiens (Diptera)
Into glasses containing an aqueous dispersion of the products under examination (see Tables 4 and 5) there were introduced mosquito larvae of third and fourth age.
The mortality percentage of the larvae (glasses containing pure water=0) was determined after 24 hours from treatment.

Locusta M. = experiment: Activity on Locusta M.; conditions: in vivo
Blatta orientalis = experiment: Biological activity on Blatta orientalis (Ortoptera); type: in vivo; conditions: Blatta orientalis, 48 h, read-out: Activity (mortality class), Blatta O.
Description: (10) Biological activity on Blatta orientalis (Ortoptera)
The bottom and walls of glass crystallizers were treated uniformly with an acetonic solution of the products under examination (see Tables 4 and 5). After evaporation of the solvent, into each crystallizer were introduced ten 80-100 days old neanides. The crystallizers were then closed with a metal net cover. After 24 hours from the start of the treatment, the insects were transferred to similar untreated crystallizers, and there were appropriately nourished in conventional manner.
The percentage of mortality (untreated insects=0) was determined after 48 hours from the start of the treatment.

Pieris brassicae = experiment: Biological activity on Pieris brassicae (Lepidoptera); type: in vivo; conditions: 48 h
Description: (2) Biological activity on Pieris brassicae (Lepidotera)
Cut-off cauliflower leaves were sprinkled with an aqueous dispersion of the products under examination (see TABLE 5).
After drying, the leaves were infested with 5-day old larvae. The percentage of mortality of the larvae (untreated leaves=0) was determined after 48 hours from treatment.

Tetranychus urticae [2] = experiment: Biological activity on Tetranychus urticae eggs (Acari); type: in vivo; conditions: bean leaf discs, 144 h
Description: (6) Biological activity on Tetranychus urticae (Acari)
Small discs of bean leaves were infested with Acari eggs and were then sprinkled with an aqueous dispersion of the products under examination (see Table 5).
The mortality percentage was determined after 6 days from treatment (untreated leaf discs, mortality=0).

Macrosiphum euphorbiae = experiment: Biological activity on Macrosiphum euphorbiae (Aphides); type: in vivo; conditions: potato plants, 24 h
Description: (1) Biological activity on Macrosiphum euphorbiae (Aphides)
Potato plants grown in pots were infested with adult females of aphides and, after several hours, were sprinked with an aqueous dispersion of the products under examination (see TABLE 5).
The percentage of mortality was assessed after 24 hours after the treatment (untreated plants=0).

[3] = system: Leptinotarsa decemlineata; experiment: Biological activity on Leptinotarsa decemlineata (Coleoptera); type: in vivo; conditions: 48 h
Description: (3) Biological activity on Leptinotarsa decemlineata (Coleoptera)
Small potato plants grown in pots were infested with 4-day old larvae, and were then sprinkled with an aqueous dispersion of the products under examination (see Tables 4 and 5).
The mortality percentage (untreated small plants=0) was determined after 48 hours from treatment.

Spodoptera littoralis = experiment: Biological activity on Spodoptera littoralis (Lepidoptera); type: in vivo; conditions: 48 h
Description: (7) Biological activity on Spodoptera littoralis (Lepidoptera)
Cut tobacco leaves were sprinkled with an aqueous dispersion of the products under examination (see Tables 4 and 5).
After drying, the leaves were infested with 5-day old larvae.
The percentage of mortality of the larvae was determined after 48 hours from treatment (untreated leaves, mortality=0).

[4] = Toxicity on albino rats by oral administration; conditions: rat, in vivo
[5] = 0.01%o, Table 5, read-out: Activity (mortality class), Tetranychus U. (adults)
[6] = read-out: Activity (mortality class), Culex P. (larvae)
[7] = read-out: Activity (mortality class), Pieris B.
[8] = read-out: Activity (mortality class), Tetranychus U. (adults)
[9] = read-out: Activity (mortality class), Leptinotarsa D.
[10] = read-out: Activity (mortality class), Spodoptera L.
[11] = 1%o, Table 5, read-out: Activity (mortality class), Pieris B.
[12] = 1%o, Table 5, read-out: Activity (mortality class), Tetranychus U. (adults)
[13] = 1%o, Table 5, read-out: Activity (mortality class), Leptinotarsa D.
[14] = 1%o, Table 5, read-out: Activity (mortality class), Spodoptera L.
[15] = 2 ppm, Table 5, read-out: Activity (mortality class), Culex P. (larvae)
[16] = 0.05%o, Table 5, read-out: Activity (mortality class), Leptinotarsa D.

Row | SMILES | mortality at 0.001 % (Tetranychus urticae [1]; [5]) [%] | mortality at 0.02 ppm (Culex pipiens; [6]) [%] | Activity (mortality class), Locusta M. (Locusta M.) | mortality at 0.1 % (Pieris brassicae; [7]) [%] | mortality at 0.001 % (Tetranychus urticae [1]; [8]) [%] | mortality at 0.1 % (Tetranychus urticae [1]; [8]) [%] | Activity (mortality class), Tetranychus U. (eggs) (Tetranychus urticae [2]) | Activity (mortality class), Macrosiphum E. (Macrosiphum euphorbiae) | mortality at 2 ppm (Culex pipiens; [6]) [%] | mortality at 0.1 % [3, 9] [%] | mortality at 0.1 % (Spodoptera littoralis; [10]) [%] | mortality at 0.1 % (Pieris brassicae; [11]) [%] | mortality at 0.1 % (Tetranychus urticae [1]; [12]) [%] | mortality at 0.1 % [3, 13] [%] | mortality at 1 g/m2 (Blatta orientalis; 1 g/m^2, Table 5) [%] | also measured
1 | C=Cc1nc(OP(=S)(OCC)OCC)n(C)n1 [M 8476] | 100 | 10 to 69 | ++ (100% of mortality) |  |  |  |  |  |  |  |  |  |  |  |  | mortality at 0.01 g/m2 (Blatta orientalis; 0,01 g/m^2, Table 5): 100%
2 | C=C(C)c1nc(OP(=S)(OCC)OCC)n(C)n1 [M 8593] |  | 10 to 69 |  | 100 | 10 to 69 | 100 | ± (10-69% of mort.) | ++ (100% of mortality) | 100 | 100 | 100 |  |  |  |  | mortality at 0.01 g/m2 (Blatta orientalis): 70 to 99%; mortality at 1 g/m2 (Blatta orientalis): 100%
3 | CCOP(=S)(OCC)Oc1nc(C(C)OC)nn1-c1ccccc1 (stereo not shown) [M 8167] |  |  |  |  |  |  | ++ (100% of mortality) | + (70-99% of mort.) | 100 |  |  | 100 | 100 | 100 |  | mortality at 0.1 % (Spodoptera littoralis; [14]): 100%
4 | CCOP(=S)(OCC)Oc1nc(C(C)SC)nn1-c1ccccc1 (stereo not shown) [M 8170] |  |  | ++ (100% of mortality) | 100 |  | 100 | ++ (100% of mortality) | + (70-99% of mort.) | 100 | 100 | 70 to 99 |  |  |  |  | 
5 | CCCOP(=S)(OCCC)Oc1nc(C=C(Cl)Cl)nn1C [M 8448] | 100 |  | ± (10-69% of mort.) |  |  |  | ++ (100% of mortality) | ++ (100% of mortality) |  |  |  | 100 | 100 | 100 | 100 | mortality at 0.001 % (Pieris brassicae; 0.01%o, Table 5, read-out: Activity (mortality class), Pieris B.): 10 to 69%; mortality at 2 ppm (Culex pipiens; [15]): 100%; mortality at 0.005 % [3, 16]: 100%; mortality at 0.1 % (Spodoptera littoralis; [14]): 100%
6 | CC=C(Cl)c1nc(OP(=S)(OCC)OCC)n(C)n1 [M 8634] | 10 to 69 |  |  |  |  |  |  |  |  |  |  | 100 | 100 | 100 | 100 | mortality at 2 ppm (Culex pipiens; [15]): 100%; LD50 [4]: 1400 mg/kg; mortality at 0.01 g/m2 (Blatta orientalis; 0,01 g/m^2, Table 5): 10 to 69%; mortality at 0.005 % [3, 16]: 100%; mortality at 0.005 % (Spodoptera littoralis; 0.05%o, Table 5, read-out: Activity (mortality class), Spodoptera L.): 10 to 69%; mortality at 0.1 % (Spodoptera littoralis; [14]): 100%
7 | CCOP(=S)(OCC)Oc1nc(C(C)=C(Cl)Cl)nn1CC [M 9141] |  | 70 to 99 | ++ (100% of mortality) | 100 | 10 to 69 | 100 | ++ (100% of mortality) | ++ (100% of mortality) | 100 | 100 | 100 |  |  |  |  | mortality at 1 g/m2 (Blatta orientalis): 100%; mortality at 0.005 % [3, 9]: 100%
8 | CCCCn1nc(C=C(Cl)Cl)nc1OP(=S)(OCCC)OCCC [M 8475] |  |  | ± (10-69% of mort.) | 100 |  | 10 to 69 | ++ (100% of mortality) | ± (10-69% of mort.) | 100 | 100 | 10 to 69 |  |  |  |  | mortality at 1 g/m2 (Blatta orientalis): 0 to 9%
9 | CCOP(=S)(OCC)Oc1nc(C(=O)CSC)nn1-c1ccccc1 [M 8169] |  |  |  | 100 |  | 100 | ++ (100% of mortality) | ± (10-69% of mort.) | 100 | 100 | 10 to 69 |  |  |  |  | 
10 | CC=Cc1nc(OP(=S)(OCC)OCC)n(C)n1 [M 8119] |  | 0 to 9 | ++ (100% of mortality) |  | 70 to 99 |  |  |  |  |  |  |  |  |  |  | mortality at 0.001 % (Pieris brassicae; [7]): 10 to 69%; mortality at 0.01 g/m2 (Blatta orientalis): 100%; mortality at 0.005 % [3, 9]: 10 to 69%; mortality at 0.005 % (Spodoptera littoralis; [10]): 10 to 69%
11 | CCOP(=S)(OCC)Oc1nc(Cl)n(C(C)C)n1 [Miral®, Diethyl-(1-isopropyl-5-chloro-1,2,4-triazole-3-yl) phosphoro-thionate, reference compound] |  |  |  |  |  |  |  |  |  |  |  |  |  |  |  | LD50 [4]: 60 mg/kg
12 | CC=Cc1nc(OP(=S)(OCC)OCC)n(C(C)C)n1 [M 9137] | 10 to 69 |  |  |  |  |  | ++ (100% of mortality) | ++ (100% of mortality) |  |  |  | 100 | 100 | 100 | 100 | mortality at 2 ppm (Culex pipiens; [15]): 100%; mortality at 0.01 g/m2 (Blatta orientalis; 0,01 g/m^2, Table 5): 10 to 69%; mortality at 0.005 % [3, 16]: 100%
13 | C=CCn1nc(C=C(Cl)Cl)nc1OP(=S)(OCC)OCC [M 8764] |  | 100 | ++ (100% of mortality) |  | 100 | 100 | ++ (100% of mortality) | ++ (100% of mortality) | 100 | 100 | 100 | 100 |  |  | 100 | mortality at 0.005 % [3, 9]: 100%; mortality at 0.005 % (Spodoptera littoralis; [10]): 100%
